The results in this text go back to patent US7625887B2, “Receptor agonists” (Takeda Pharmaceutical Company Limited, priority 2003, dated 2009).

In one test the test system is THP-TGR5 cells. Kind of test: suppression of LPS induced TNF α secretion in THP-TGR5 cells. The settings on record: non-addition: 11 with LPS, 2.7 without LPS. Format: cell-based, human. On the procedure:
TGR5 high expression cells were established by introducing TGR5 gene into human macrophage cells line THP-1. According to a conventional method, pcDNA-TGR5 incorporating cDNA of human TGR5 in pcDNA3.1 (Invitrogen) was prepared. Then, THP-1 was cultured in a medium (RPMI1640 10% FBS), and pcDNA-TGR5 was introduced thereinto using lipofectamine (Gibco BRL) according to conventional methods. Thereafter, G418 (Gibco BRL) was added to the medium to select resistant strains, and cells line, THP-TGR5 that expresses TGR5 stably and highly was established.
THP-TGR5 thus obtained was diluted to a concentration of 1×10^5/well and cultured overnight in a 96 well plate in the presence of 10^−8M phorbol ester (Wako Pure Chemical Industries, Ltd.). THP-TGR5 after culture was cultured for 1 hr in a medium containing a test compound or a control medium (0.1 ml) free of a test compound, 0.1 ml of a medium containing the same concentration of the test compound or a control medium free of the test compound, each of which containing LPS for induction of TNF α secretion was added (concentration at the time of addition 50 ng/ml) and the mixture was incubated at 37° C. under 5% CO2 for 14 hrs. The culture supernatant was collected and the TNF α content was measured with the growth suppressing effect on the TNF sensitive cell line L929 (RIKEN Institute) as an index.
L929 cells were seeded in a 96 well plate at 1.2×10^4/well and incubated overnight at 37° C. under 5% CO2. The obtained culture product was cultured overnight in a medium (phenol red free Dulbecco's Modified Eagle Medium (Invitrogen) supplemented with 10% fetal bovine serum (Invitrogen), 100 U/ml penicillin and 100 μg/ml streptomycin), which contained the aforementioned THP-TGR5-containing culture supernatant and 2 μg/ml Actinomycin D (Wako Pure Chemical Industries, Ltd.). The TNF α content was determined by measuring the growth of the L929 cells in the obtained culture product using a Cell Counting Kit-8 (Wako Pure Chemical Industries, Ltd.). As the standard sample, human recombinant TNF α (Genzyme) was used.

Test [1] concerns mock CHO cells free of human TGR5 expression. Nature of the test: cAMP production increasing activity in mock CHO cells free of human TGR5 expression. Format: cell-based. The settings on record: average of 3 groups. On the procedure:
As the assay buffer, Hank's balanced salt solution (HBSS, Invitrogen) supplemented with 0.1% bovine serum albumin (BSA, Sigma) and 0.2 mM 3-isobutyl-1-methylxanthine (IBMX, Sigma) was used. The cells were washed twice with the assay buffer and preincubated at 37° C. for 30 min. The cells were washed twice, and test compound samples (10 μM) diluted with the assay buffer to various concentrations were added. The cells were incubated at 37° C. for 20 min. The culture supernatant was discarded, and the cAMP production amount was measured using a cAMP Screen System (ABI).
A general note: Changes in cAMP serve as a functional read-out for many G protein-coupled receptors.

Test [2] deals with T1, human TGR5 (Homo sapiens, UniProt Q8TDU6).
T1 construct: expressed in transfected cells; host or cells: CHO cells
T1 sequence (Q8TDU6 1-330): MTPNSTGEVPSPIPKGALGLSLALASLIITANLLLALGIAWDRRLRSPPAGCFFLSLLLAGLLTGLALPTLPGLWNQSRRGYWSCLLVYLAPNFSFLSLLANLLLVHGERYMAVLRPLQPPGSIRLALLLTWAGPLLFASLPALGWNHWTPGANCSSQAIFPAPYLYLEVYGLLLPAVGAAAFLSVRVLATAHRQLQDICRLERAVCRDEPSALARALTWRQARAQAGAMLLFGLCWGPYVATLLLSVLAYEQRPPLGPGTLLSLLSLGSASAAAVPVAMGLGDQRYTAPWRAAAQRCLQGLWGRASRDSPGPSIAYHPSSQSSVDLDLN
Kind of test: cAMP production increasing activity in human TGR5 expressing CHO cells. To be noted: test compound 1 μM, 30 min; 1 μM lithocholic acid = 100%, no addition = 0%; average of 3 groups. Format: cell-based. How it is done:
As the assay buffer, Hank's balanced salt solution (HBSS, Invitrogen) supplemented with 0.1% bovine serum albumin (BSA, Sigma) and 0.5 mM 3-isobutyl-1-methylxanthine (IBMX, Sigma) was used. A test compound sample (1 μM) diluted with the assay buffer was added to the cells. The cells were incubated at 37° C. for 30 min. and the supernatant was suctioned. The intracellular cAMP amount increased by the stimulation of the test compound was quantitatively determined using a HitHunter™ EFC Cyclic AMP Chemiluminescence Assay Kit (ABI) kit.

The subject of test [3] is NCI-H716 cells. Nature of the test: GLP-1 secretion from NCI-H716 cell line. Format: cell-based, human. The settings on record: 2 hrs, secretion amount in Base was 100%. On the procedure: NCI-H716 cells secrete Glucagon-like peptide-1 (GLP-1). GLP-1 is a peptide useful for controlling blood glucose level because it acts on the pancreas to cause secretion of insulin and the like. In the same manner as in Experimental Example 9, NCI-H716 (ATCC) was seeded in a 96 well plate and, after incubation for 2 days, used for the following secretion test. As a buffer for secretion test, modified Krebs-Ringer bicarbonate buffer (KRBH, 116 mM NaCl, 4.7 mM KCl, 1.2 mM KH2PO4, 1.2 mM MgSO4, 2.5 mM CaCl2, 25 mM NaHCO3, 24 mM HEPES, pH 7.3) supplemented with glucose 5.5 mM and BSA 0.1% was used. The cells were washed once with the buffer for secretion test, preincubated at 37° C. under 5% CO2, bile acid diluted with the buffer for secretion test was added and the cells were cultured at 37° C. under 5% CO2 for 2 hrs. The cell culture supernatant was collected, cryopreserved and the GLP-1 content in the supernatant was measured using a GLP-1 measurement EIA kit (Linco) The results are shown in Table 9. In the Table, Base means non-addition of a test compound.

In test [4] the target is T1, human TGR5. Nature of the test: cAMP production increasing activity in human TGR5 expressing CHO cells. Format: cell-based. The settings on record: read-out: EC50 value (concentration necessary to make the cAMP production amount 50%).
The test system of test [5] is NCI-H716 cells. Kind of test: intracellular cAMP production increasing action in NCI-H716 cells. In kind it is cell-based, human. The settings on record: 2 hrs, production amount in TLCA (50 μM) was 100%, Base 11. How it is done:
NCI-H716 (ATCC) was suspended in a medium (Dulbecco's Modified Eagle Medium (DMEM, Invitrogen) supplemented with 10% fetal bovine serum (Invitrogen), 100 U/ml penicillin and 100 μg/ml streptomycin), seeded in a 96 well plate, cultured for 2 days and used for cAMP production assay. As a cAMP assay buffer, modified Krebs-Ringer bicarbonate buffer (KRBH, 116 mM NaCl, 4.7 mM KCl, 1.2 mM KH2PO4, 1.2 MM MgSO4, 2.5 mM CaCl2, 25 mM NaHCO3, 24 mM HEPES pH 7.3), supplemented with glucose 5.5 mM, bovine serum albumin (BSA) 0.1%, and 3-isobutyl-1-methylxanthine (IBMX, Sigma) 1 mM, was used. The cells were washed once with cAMP assay buffer. Bile acids (50 μM) diluted with cAMP assay buffer or the compounds of the present invention (10 μM) were added thereto and the cells were incubated for 2 hrs. The culture supernatant was discarded, and the cAMP production amount was measured by cAMP Screen System (ABI). In the Table, Base means non-addition of a test compound.

Another test concerns the target T2, rat TGR5 (Rattus norvegicus, UniProt Q80T02).
T2 construct: expressed in transfected cells; host or cells: CHO cells
T2 sequence (Q80T02 1-329): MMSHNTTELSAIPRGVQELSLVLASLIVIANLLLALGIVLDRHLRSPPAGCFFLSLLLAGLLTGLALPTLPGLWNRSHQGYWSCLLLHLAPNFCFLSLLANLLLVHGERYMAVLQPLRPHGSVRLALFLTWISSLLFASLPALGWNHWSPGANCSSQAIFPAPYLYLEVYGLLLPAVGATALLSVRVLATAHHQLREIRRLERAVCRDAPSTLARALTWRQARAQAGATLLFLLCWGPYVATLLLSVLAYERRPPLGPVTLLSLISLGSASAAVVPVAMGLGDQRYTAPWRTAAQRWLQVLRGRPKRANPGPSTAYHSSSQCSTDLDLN
Kind of test: cAMP production increasing activity in rat type TGR5 expressing CHO cells. The settings on record: 0.5 h, read-out: cAMP producing activity (control %). In kind it is cell-based. On the procedure:
(§1) After culture, the cells were detached with 0.5 mM EDTA/PBS, washed with PBS, and suspended in Buffer 1 (HBSS+0.1% BSA, 25 mM HEPES pH 7.3, 0.5 mM IBMX) at a density of 1×10^7 cells/ml. The obtained cell suspension (460 μl), anti-cAMP acceptor beads (23 μl) of AlphaScreen cAMP assay kit (Perkin Elmer) and Buffer 1 (667 μl) were mixed and dispensed to a white 96 well plate (Costar) by 10 μl. Then, a test compound diluted with Buffer 1 was added to each well by 10 μl. At this time, one row of the plate was free of the cell suspension but added with anti-cAMP acceptor beads (9 μl) and Buffer 1 (441 μl) alone, and serial dilutions of cAMP were added instead of the test compound and used as the standard. A mixture of the cell suspension and the test compound contained in the plate was allowed to react at room temperature for 30 min. […] The plate was shaken at room temperature for 2.5 hrs and fluorescence intensity was measured by Fusion α (Parkin Elmer), and the cAMP concentration of each well was calculated using the cAMP standard on each plate.

A further test relates to guinea pig TGR5. Nature of the test: cAMP production increasing activity in guinea pig TGR5 expressing CHO cells. In kind it is cell-based. To be noted: test compound 2 μM; 10 μM lithocholic acid = 100%; average of 3 groups. How it is done:
as §1, with “The guinea pig type TGR5 expressing CHO cells were seeded in one 150 cm^2 flask at 1×10^7 cells, and cultured overnight at 37° C., 5% CO2. After” for “After”

Regarding `CCOC(=O)CC1C(=O)N(CC(C)(C)C)c2ccccc2CN1C(=O)OC(C)(C)C` (stereo not shown) [Reference Example 1B, tert-butyl 3-(2-ethoxy-2-oxoethyl)-1-neopentyl-2-oxo-1,2,3,5-tetrahydro-4H-1,4-benzodiazepine-4-carboxylate], in the test with THP-TGR5 cells (test compound 10 μM), the “TNF α” value amounted to 0.63 ng/mL.

As to `C=C[C@@]1(C)CC(=O)[C@]2(O)[C@@]3(C)[C@@H](O)CCC(C)(C)[C@@H]3[C@H](O)[C@H](OC(C)=O)[C@@]2(C)O1` [Forskolin, reference compound], the “cAMP production increasing activity” value is given as 4.02 pmol in test [1] (Experimental Example 2, Forskolin 2 μM, Base 0.85); 5.68 pmol in test [1] (Experimental Example 4, test compounds 2 μM, Base 0.28); 3.01 pmol in test [1] (Experimental Example 5, test compounds 2 μM, Base 0.19).

As for `CC(=O)NCc1cccc([C@@H]2O[C@H](CC(=O)NCc3ccccc3F)C(=O)N(CC(C)(C)C)c3ccc(Cl)cc32)c1` (relative stereo) [Reference Example 3, 2-[3,5-trans-5-[3-(acetylaminomethyl)phenyl]-7-chloro-1-neopentyl-2-oxo-1,2,3,5-tetrahydro-4,1-benzoxazepin-3-yl]-N-(2-fluorobenzyl)acetamide], in the test on THP-TGR5 cells (test compound 10 μM), the “TNF α” value turned out to be 0.33 ng/mL. In addition, the “cAMP production increasing activity (control %)” value at human TGR5 [2] was 85 control %.

As to `COC(=O)NCc1cccc(C2OC(CC(=O)NCc3ccccc3F)C(=O)N(CC(C)(C)COC(C)=O)c3ccc(Cl)cc32)c1` (stereo not drawn) [Example 46, 3-[3,5-trans-7-chloro-3-[2-[(2-fluorobenzyl)amino]-2-oxoethyl]-5-[3-(methoxycarbonylaminomethyl)phenyl]-2-oxo-2,3-dihydro-4,1-benzoxazepin-1(5H)-yl]-2,2-dimethylpropyl acetate], the “GLP-1 secretion increase (%)” value in the test on NCI-H716 cells [3] (5 μM) worked out at 165%. Besides, the EC50 on human TGR5 [4] was less than 100 nM. Moreover, the “cAMP production increasing activity (%)” value with NCI-H716 cells [5] (10 μM) is recorded as 112%. For the same molecule, on rat TGR5, the activation at 2 µM came out at 104%. Also, the “cAMP producing activity (control %)” value in the test on guinea pig TGR5 is 77 control %.

Turning to `C[C@H](CCC(=O)O)[C@H]1CC[C@H]2[C@@H]3CC[C@@H]4C[C@H](O)CC[C@]4(C)[C@H]3CC[C@]12C` [lithocholic acid, reference compound], in the test on THP-TGR5 cells (bile acid 50 μM), the “TNF α” value is 1.1 ng/mL. Moreover, in the test with NCI-H716 cells [3] (bile acid 25 μM), the “GLP-1 secretion increase (%)” value amounted to 121%. Moreover, the “cAMP production increasing activity (%)” value with NCI-H716 cells [5] (bile acid 50 μM) was 107%.

For `COC(=O)NCc1cccc([C@@H]2O[C@H](CC(=O)NCc3ccccc3F)C(=O)N(CC(C)(C)C)c3ccc(Cl)cc32)c1` (relative stereo) [Reference Example 6, methyl [3-[3,5-trans-7-chloro-3-[2-[(2-fluorobenzyl)amino]-2-oxoethyl]-1-neopentyl-2-oxo-1,2,3,5-tetrahydro-4,1-benzoxazepin-5-yl]benzyl]carbamate], in the test on THP-TGR5 cells (test compound 10 μM), the “TNF α” value came out at 0.32 ng/mL. Besides, on human TGR5 [2], the “cAMP production increasing activity (control %)” value amounted to 98 control %.
